Source: ChEMBL document CHEMBL3039007, “Structure-based identification of OATP1B1/3 inhibitors” (Mol Pharmacol, 2013)
Starred links: 1 amine or outer side, 2 acyl side, 3 side chain; linkers in the order of their positions; H or OH if unused. Positions of bridges follow the written chain, without caps; N, C: chain ends. Non-standard residues stand in square brackets, D forms with d. Residues, ends and D or L forms follow the SMILES beside them. ξ: configuration not given here. *: point of attachment. X1 = N=C1NCCC([C@H](N[*:1])C(=O)[*:2])N1; ΔAla(Z-3-ureido) = NC(=O)N/C=C(\N)C(=O)O; ξβ3hOrn = NCCCC(N)CC(=O)*; Dap = NC[C@H](N)C(=O)O

How the values were obtained:
[1] = molecular target: T1, Solute carrier organic anion transporter family member 1B1 (Homo sapiens, UniProt Q9Y6L6); conditions: chinese hamster, cho, 10 µM
T1 sequence (Q9Y6L6 whole entry): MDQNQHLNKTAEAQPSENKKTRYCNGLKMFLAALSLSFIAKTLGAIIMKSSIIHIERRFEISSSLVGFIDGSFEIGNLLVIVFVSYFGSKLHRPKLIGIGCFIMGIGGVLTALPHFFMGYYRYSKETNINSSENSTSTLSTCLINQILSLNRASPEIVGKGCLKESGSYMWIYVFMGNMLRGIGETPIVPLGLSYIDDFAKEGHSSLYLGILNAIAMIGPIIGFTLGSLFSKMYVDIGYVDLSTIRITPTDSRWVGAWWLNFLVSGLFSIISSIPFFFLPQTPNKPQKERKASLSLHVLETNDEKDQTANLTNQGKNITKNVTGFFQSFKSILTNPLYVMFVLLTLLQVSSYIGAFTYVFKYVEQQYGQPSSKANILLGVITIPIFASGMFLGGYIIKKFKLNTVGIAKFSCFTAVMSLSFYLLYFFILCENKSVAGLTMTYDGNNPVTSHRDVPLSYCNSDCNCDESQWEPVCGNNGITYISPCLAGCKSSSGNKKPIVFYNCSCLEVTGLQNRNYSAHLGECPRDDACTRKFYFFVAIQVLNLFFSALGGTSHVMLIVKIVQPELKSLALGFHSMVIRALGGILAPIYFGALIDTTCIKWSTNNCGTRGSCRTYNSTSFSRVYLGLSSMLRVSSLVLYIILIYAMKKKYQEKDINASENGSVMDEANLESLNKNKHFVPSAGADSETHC

[2] = molecular target: T2, Solute carrier organic anion transporter family member 1B3 (Homo sapiens, UniProt Q9NPD5); conditions: chinese hamster, cho, 10 µM
T2 sequence (Q9NPD5 whole entry): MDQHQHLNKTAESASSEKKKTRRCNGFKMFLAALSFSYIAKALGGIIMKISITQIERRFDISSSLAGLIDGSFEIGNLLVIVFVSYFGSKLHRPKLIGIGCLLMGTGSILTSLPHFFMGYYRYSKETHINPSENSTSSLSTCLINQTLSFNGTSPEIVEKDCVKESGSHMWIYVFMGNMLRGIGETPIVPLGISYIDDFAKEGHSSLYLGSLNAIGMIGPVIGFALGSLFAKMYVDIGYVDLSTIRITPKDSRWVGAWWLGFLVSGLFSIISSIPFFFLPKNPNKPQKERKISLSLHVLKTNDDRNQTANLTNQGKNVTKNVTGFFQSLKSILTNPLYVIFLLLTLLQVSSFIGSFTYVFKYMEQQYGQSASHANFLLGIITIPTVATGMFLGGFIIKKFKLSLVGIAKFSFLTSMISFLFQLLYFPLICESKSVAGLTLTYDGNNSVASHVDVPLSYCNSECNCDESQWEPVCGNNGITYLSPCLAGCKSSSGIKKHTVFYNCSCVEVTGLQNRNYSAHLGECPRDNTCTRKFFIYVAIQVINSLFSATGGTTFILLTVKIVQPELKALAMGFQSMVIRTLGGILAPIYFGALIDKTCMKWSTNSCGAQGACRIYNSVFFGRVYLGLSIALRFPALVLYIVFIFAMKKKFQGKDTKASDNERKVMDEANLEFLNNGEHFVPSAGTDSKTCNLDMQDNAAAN

Row | Structure (SMILES) | residual activity [1] [%] | residual activity [2] [%]
1 | CS(=O)(=O)Nc1ccc([N+](=O)[O-])cc1Oc1ccccc1 [NIMESULIDE] | 82.48 | 58.26
2 | CCCOc1ccccc1-c1nc2nn[nH]c2c(=O)[nH]1 [ZAPRINAST] | 98.85 | 86.99
3 | CCCC(CCC)C(=O)[O-].[Na+] [VALPROATE SODIUM] | 90.61 | 125.1
4 | C[C@@H]1NC(=O)[C@@H](N)CNC(=O)[C@H](C2CCNC(=N)N2)NC(=O)/C(=C/NC(N)=O)NC(=O)[C@H](CNC(=O)CC(N)CCCN)NC1=O.N=C1NCCC([C@@H]2NC(=O)/C(=C/NC(N)=O)NC(=O)[C@H](CNC(=O)CC(N)CCCN)NC(=O)[C@H](CO)NC(=O)[C@@H](N)CNC2=O)N1.O=S(=O)(O)O.O=S(=O)(O)O (stereo partly drawn) [CAPREOMYCIN SULFATE] (H-[Dap]S[Dap](ξβ3hOrn)[ΔAla(Z-3-ureido)][X1]; lactam 1-C) | 89.76 | 80.84
5 | CCCCN1CCCCC1C(=O)Nc1c(C)cccc1C.Cl (stereo not drawn) [BUPIVACAINE HYDROCHLORIDE] | 97.15 | 94.2
6 | CCn1cc(C(=O)O)c(=O)c2cnc(N3CCCC3)nc21 [PIROMIDIC ACID] | 79.57 | 101
7 | Cc1ccccc1C(OCCN(C)C)c1ccccc1.O=C(O)CC(O)(CC(=O)O)C(=O)O (stereo not drawn) [ORPHENADRINE CITRATE] | 87.55 | 96.44
8 | CC1(C)C(=O)C=C[C@]2(C)[C@H]3CC[C@@]4(C)[C@H](c5ccoc5)OC(=O)[C@H]5O[C@]54[C@]3(C)C(=O)C[C@@H]12 [DEACETOXY-7-OXOGEDUNIN] | 40.28 | 85.14
9 | C=C1c2cccc(O)c2C(=O)C2=C(O)[C@]3(O)C(=O)C(C(N)=O)=C(O)[C@@H](N(C)C)[C@@H]3[C@@H](O)[C@H]12.Cl [METHACYCLINE HYDROCHLORIDE] | 110.8 | 110.7
10 | OC[C@H]1O[C@@H](Oc2ccc(O)cc2)[C@H](O)[C@@H](O)[C@@H]1O [ARBUTIN] | 103.7 | 113.4
11 | CN[C@H]1CC[C@@H](c2ccc(Cl)c(Cl)c2)c2ccccc21.Cl [SERTRALINE HYDROCHLORIDE] | 66.16 | 72.13
12 | C[C@]12CCC(=O)C=C1CC[C@@H]1[C@@H]2[C@@H](O)C[C@@]2(C)[C@H]1CC[C@]2(O)C(=O)CO [HYDROCORTISONE] | 98.24 | 113.8
13 | Cc1cc(=O)c2c(O)cc(O)c(C)c2o1 [ISOEUGENITOL] | 129.2 | 101
14 | CCCCCCCCCCCCCCCC(=O)OC/C=C(C)/C=C/C=C(C)/C=C/C1=C(C)CCCC1(C)C [VITAMIN A PALMITATE] | 77.04 | 85.92
15 | COc1cc(O)c(C)c(O)c1 [2,6-DIHYDROXY-4-METHOXYTOLUENE] | 108.8 | 91.69
16 | CCN(Cc1ccncc1)C(=O)C(CO)c1ccccc1 (stereo not drawn) [TROPICAMIDE] | 75.11 | 81.94
17 | CC1=CC2C(C(C)C)CC[C@@](C)(O)C2CC1 (stereo partly drawn) | 80.24 | 88.94
18 | CC(=O)OCC(=O)[C@@]1(O)CC[C@H]2[C@@H]3CCC4=CC(=O)C=C[C@]4(C)[C@H]3[C@@H](O)C[C@@]21C [PREDNISOLONE ACETATE] | 63.69 | 106.7
19 | CN(C)/N=N/c1[nH]cnc1C(N)=O [DACARBAZINE] | 97.65 | 90.13
20 | CCC[C@@H]1C[C@@H](C(=O)N[C@@H]([C@H]2O[C@H](SC)[C@H](O)[C@@H](O)[C@H]2O)[C@H](C)Cl)N(C)C1.Cl [CLINDAMYCIN HYDROCHLORIDE] | 69.97 | 115.2
21 | C=C(C)[C@@H]1CC=C(CO)CC1 [PERILLYL ALCOHOL] | 84.39 | 91.29
22 | Cc1ccc(Cl)c(Nc2ccccc2C(=O)[O-])c1Cl.O.[Na+] [MECLOFENAMATE SODIUM] | 77.28 | 87.03

Row | Structure (SMILES) | residual activity [1] [%] | residual activity [2] [%]
23 | CNC(=O)N(C)c1nnc(C(C)(C)C)s1 [TEBUTHIURON] | 87.52 | 111.4
24 | CC1=C2[C@H]3OC(=O)[C@@H](C)[C@@H]3CC[C@@]2(C)C=CC1=O [SANTONIN] | 108.9 | 89.43
25 | CC1(C)CC2C1CCC1(C)OC2(C)CCC1O (stereo not drawn) [3,7-EPOXYCARYOPHYLLAN-6-OL] | 57.88 | 80.05
26 | COc1cc2c(cc1OC)C1C(=O)c3c(cc4c(c3O)C=CC(C)(C)O4)OC1CO2 (stereo not drawn) [beta-TOXICAROL] | 67.84 | 70.52
27 | COc1ccc(-c2cc(=O)c3c(O)cc(O[C@@H]4O[C@H](CO[C@@H]5O[C@@H](C)[C@H](O)[C@@H](O)[C@H]5O)[C@@H](O)[C@H](O)[C@H]4O)cc3o2)cc1O [DIOSMIN] | 67.13 | 93.34
28 | CC(C)CCC[C@@H](C)[C@H]1CC[C@H]2[C@@H]3CC=C4CC(=O)CC[C@]4(C)[C@H]3CC[C@]12C [CHOLEST-5-EN-3-ONE] | 119.6796 | 103.5
29 | CC(=O)O[C@@H]1CC[C@@]2(C)[C@@H](CC[C@@H]3[C@@H]2CC[C@]2(C)C(=O)CC[C@@H]32)C1 [ANDROSTERONE ACETATE] | 76.88 | 100.8
30 | CC1=C(/C=C/C(C)=C/C=C/C(C)=C\C(=O)O)C(C)(C)CCC1 [ISOTRETINOIN] | 32.24 | 51.47
31 | CC(=O)O[C@H]1C[C@@H](OC(C)=O)C(C)(C)[C@@H]2C[C@@H](OC(C)=O)[C@]3(C)[C@H](CC[C@]4(C)[C@H](c5ccoc5)C(=O)[C@H]5O[C@@]534)[C@@]12C | 26.02 | 57.61
32 | N=C(N)NC(=O)c1nc(Cl)c(N2CCCCCC2)nc1N [N,N-HEXAMETHYLENEAMILORIDE] | 122.5 | 162.9
33 | CN(C)CCCN1c2ccccc2Sc2ccccc21.Cl [PROMAZINE HYDROCHLORIDE] | 82.72 | 81.19
34 | COc1cc(Cc2cnc(N)nc2N)cc(OC)c1OC [TRIMETHOPRIM] | 82.92 | 97.26
35 | CC(=O)S[C@@H]1CC2=CC(=O)CC[C@]2(C)[C@H]2CC[C@@]3(C)[C@@H](CC[C@@]34CCC(=O)O4)[C@H]12 [SPIRONOLACTONE] | 52.45 | 103.5
36 | O=C(O)c1ccccc1C(=O)Nc1ccc(S(=O)(=O)Nc2nccs2)cc1 [PHTHALYLSULFATHIAZOLE] | 115.5 | 107
37 | COc1ccc2c(c1OC)C(=O)O[C@@H]2[C@H]1c2c(cc3c(c2OC)OCO3)CCN1C.Cl [NOSCAPINE HYDROCHLORIDE] | 114.6 | 93.17
38 | COc1ccc2c(=O)cc(-c3ccccc3OC)oc2c1 [7,2'-DIMETHOXYFLAVONE] | 95.82 | 110.5
39 | O=C1CC(c2ccccc2)Oc2ccccc21 (stereo not drawn) [FLAVANONE] | 76.99 | 79.68
40 | Clc1ccc(Cl)cc1 [1,4-DICHLOROBENZENE] | 99.98 | 96.49
41 | CN(C)CCc1c[nH]c2ccc(CS(=O)(=O)N3CCCC3)cc12 [ALMOTRIPTAN] | 95.85 | 94.33
42 | CC(=O)OCC(CCn1cnc2cnc(N)nc21)COC(C)=O [FAMCICLOVIR] | 68.22 | 68.05
43 | CCn1cc(C(=O)O)c(=O)c2cnc(N3CCNCC3)nc21 [PIPEMIDIC ACID] | 111.8 | 131.1
44 | COc1ccc(C(=O)CC(=O)c2ccc(C(C)(C)C)cc2)cc1 [AVOBENZONE] | 124 | 103
